Laboratory results taken from ChEMBL document CHEMBL1130186, “Potent alpha 4 beta 1 peptide antagonists as potential anti-inflammatory agents” (J Med Chem, 1997).
*1 amine or outer side, *2 acyl side, *3 side chain or, on linkers, in order; H or OH if unused. Where a SMILES comes first, the peptide text is derived from it. Bridges are numbered along the chain shown (N, C = ends). [ ]: non-standard residue; d: D form. The star is where a group is joined. X5 = O=C([C@H](Cc1c(F)c(F)c(O)c(F)c1F)N[*:1])[*:2]; Fluorene(1-CO) = O=C(c1cccc2c1Cc1ccccc1-2)*; Tyr(3-Cl) = N[C@@H](Cc1ccc(O)c(Cl)c1)C(=O)O; Phenylacetyl(4-OMe) = COc1ccc(CC(=O)*)cc1; Tyr(3-F) = N[C@@H](Cc1ccc(O)c(F)c1)C(=O)O; Tyr(3-I) = N[C@@H](Cc1ccc(O)c(I)c1)C(=O)O; X1 = O=C(C(Cc1ccc(O)cc1)c1ccccc1)*; mTyr = N[C@@H](Cc1cccc(O)c1)C(=O)O; X4 = O=C(c1ccc(-c2ccc(O)cc2)cc1)*; X2 = O=C(c1cccc2cc(O)ccc12)*; 3Abz = Nc1cccc(C(=O)O)c1; Inp = O=C(O)C1CCNCC1; GABA = NCCCC(=O)O; βAla = NCCC(=O)O

Experiments:
Integrin alpha-4/beta-1 [1] = biological target: T1, Integrin alpha-4/beta-1 (Homo sapiens, UniProt P05556+P13612); assay: Inhibition of fluorescently labeled alpha4-beta1 positive Ramos cells binding to immobilized VCAM-1.; format: cell-based
T1 sequence (P05556 whole entry): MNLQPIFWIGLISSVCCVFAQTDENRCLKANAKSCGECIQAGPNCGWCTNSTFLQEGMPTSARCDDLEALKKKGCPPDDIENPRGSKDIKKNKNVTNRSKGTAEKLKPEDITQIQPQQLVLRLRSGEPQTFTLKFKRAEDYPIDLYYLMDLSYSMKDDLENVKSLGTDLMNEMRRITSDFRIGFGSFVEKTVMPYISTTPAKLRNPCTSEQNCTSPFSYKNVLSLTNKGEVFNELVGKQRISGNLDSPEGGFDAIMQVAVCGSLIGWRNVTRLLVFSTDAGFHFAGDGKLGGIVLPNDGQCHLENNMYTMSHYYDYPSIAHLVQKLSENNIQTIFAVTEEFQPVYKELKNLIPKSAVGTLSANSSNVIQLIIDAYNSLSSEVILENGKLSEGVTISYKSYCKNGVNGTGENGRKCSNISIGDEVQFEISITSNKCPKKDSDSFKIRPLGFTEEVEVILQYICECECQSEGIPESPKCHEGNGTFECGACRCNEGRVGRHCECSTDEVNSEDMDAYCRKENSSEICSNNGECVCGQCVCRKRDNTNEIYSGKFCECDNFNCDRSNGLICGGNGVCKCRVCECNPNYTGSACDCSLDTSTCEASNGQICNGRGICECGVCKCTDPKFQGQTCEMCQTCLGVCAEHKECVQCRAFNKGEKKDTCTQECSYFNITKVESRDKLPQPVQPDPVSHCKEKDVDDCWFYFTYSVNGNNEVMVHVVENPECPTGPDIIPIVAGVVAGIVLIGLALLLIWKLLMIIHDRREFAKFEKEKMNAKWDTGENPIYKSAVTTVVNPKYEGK
T1 sequence (P13612 whole entry): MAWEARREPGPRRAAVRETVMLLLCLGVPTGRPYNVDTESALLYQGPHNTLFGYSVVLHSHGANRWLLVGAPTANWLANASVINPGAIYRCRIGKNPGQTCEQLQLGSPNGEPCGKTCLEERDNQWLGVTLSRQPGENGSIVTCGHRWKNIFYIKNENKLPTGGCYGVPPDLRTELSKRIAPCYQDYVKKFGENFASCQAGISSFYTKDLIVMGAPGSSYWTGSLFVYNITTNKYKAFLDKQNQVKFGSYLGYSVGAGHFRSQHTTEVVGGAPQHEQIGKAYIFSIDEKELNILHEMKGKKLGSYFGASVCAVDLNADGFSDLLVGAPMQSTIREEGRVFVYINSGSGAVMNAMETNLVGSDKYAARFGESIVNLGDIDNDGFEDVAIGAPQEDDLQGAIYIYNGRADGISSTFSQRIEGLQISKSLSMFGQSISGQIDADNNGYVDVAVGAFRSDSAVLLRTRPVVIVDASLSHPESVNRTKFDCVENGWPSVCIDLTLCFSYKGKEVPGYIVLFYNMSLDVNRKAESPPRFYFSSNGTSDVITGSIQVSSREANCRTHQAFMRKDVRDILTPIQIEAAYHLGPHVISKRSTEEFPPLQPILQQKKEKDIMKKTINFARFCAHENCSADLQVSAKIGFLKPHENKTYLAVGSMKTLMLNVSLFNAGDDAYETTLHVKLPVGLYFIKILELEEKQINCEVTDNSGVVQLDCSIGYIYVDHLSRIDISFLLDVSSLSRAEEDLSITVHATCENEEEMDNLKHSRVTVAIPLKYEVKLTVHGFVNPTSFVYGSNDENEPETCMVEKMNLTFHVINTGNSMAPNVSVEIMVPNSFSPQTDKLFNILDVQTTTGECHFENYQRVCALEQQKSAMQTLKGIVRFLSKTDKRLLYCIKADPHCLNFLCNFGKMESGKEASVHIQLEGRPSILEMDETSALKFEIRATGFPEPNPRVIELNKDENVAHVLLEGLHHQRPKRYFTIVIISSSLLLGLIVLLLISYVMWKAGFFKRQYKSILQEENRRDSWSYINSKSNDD

Integrin alpha-4/beta-1 [2] = biological target: T1, Integrin alpha-4/beta-1; assay: Inhibition of alpha4-beta1 binding to VCAM-1 in ELISA.; format: protein-complex assay
Integrin alpha-4/beta-1 [3] = biological target: T1, Integrin alpha-4/beta-1; assay: Inhibition of purified alpha-4 beta-1 binding to VCAM-1 was determined in an ELISA assay.; format: protein-complex assay

Structure (SMILES)	IC50 (Integrin alpha-4/beta-1 [1])	IC50 (Integrin alpha-4/beta-1 [2])	IC50 (Integrin alpha-4/beta-1 [3])
NC(N)=NCCC[C@H](N)C(=O)N[C@H]1CSSC[C@@H](C(=O)O)NC(=O)[C@@H]2CCCN2C(=O)[C@H](CC(=O)O)NC1=O (H-RCDPC-OH; disulfide 2-5)	80000 nM	3700 nM	
N[C@@H](Cc1ccc(O)cc1)C(=O)N[C@H]1CSSC[C@@H](C(=O)O)NC(=O)c2cccc(c2)NC1=O (H-YC[3Abz]C-OH; disulfide 2-4)		8 nM	
N[C@@H](Cc1ccc(O)cc1)C(=O)N[C@H]1CSSC[C@@H](C(=O)O)NC(=O)CCCNC1=O (H-YC[GABA]C-OH; disulfide 2-4)	1000 nM		38 nM
N[C@@H](Cc1ccc(O)cc1)C(=O)N[C@H]1CSSC[C@@H](C(=O)O)NC(=O)C2CCN(CC2)C1=O (H-YC[Inp]C-OH; disulfide 2-4)	1500 nM		31 nM
N[C@@H](Cc1ccc(O)cc1)C(=O)N[C@H]1CSSC[C@@H](C(=O)O)NC(=O)CCNC1=O (H-YC[βAla]C-OH; disulfide 2-4)	210000 nM		4200 nM
NCCCC[C@H](NC(=O)[C@@H](N)Cc1ccc(O)cc1)C(=O)N[C@H]1CSSC[C@@H](C(=O)O)NC(=O)[C@@H]2CCCN2C(=O)[C@H](CC(=O)O)NC1=O (H-YKCDPC-OH; disulfide 3-6)	5000 nM		150 nM
C[C@@H]1NC(=O)[C@@H](NC(=O)[C@H](CCCN=C(N)N)NC(=O)[C@@H](N)Cc2ccc(O)cc2)CSSC[C@@H](C(=O)O)NC(=O)[C@@H]2CCCN2C1=O (H-YRCAPC-OH; disulfide 3-6)	8000 nM		60 nM
NC(N)=NCCC[C@H](NC(=O)[C@@H](N)Cc1ccc(O)cc1)C(=O)N[C@H]1CSSC[C@@H](C(=O)O)NC(=O)[C@@H]2CCCN2C(=O)[C@H](CC(=O)O)NC1=O (H-YRCDPC-OH; disulfide 3-6)	6000 nM		110 nM
N=C(N)NCCC[C@H](NC(=O)[C@@H](N)Cc1ccc(O)cc1)C(=O)N[C@H]1CSSC[C@@H](C(=O)O)NC(=O)[C@@H]2CCCN2C(=O)[C@H](CCC(=O)O)NC1=O (H-YRCEPC-OH; disulfide 3-6)	30000 nM		90 nM
N=C(N)NCCC[C@H](NC(=O)[C@@H](N)Cc1ccc(O)cc1)C(=O)N[C@H]1CSSC[C@@H](C(=O)O)NC(=O)[C@@H]2CCCN2C(=O)[C@H](CC(N)=O)NC1=O (H-YRCNPC-OH; disulfide 3-6)	7000 nM		40 nM
N=C(N)NCCC[C@H](NC(=O)[C@@H](N)Cc1ccc(O)cc1)C(=O)N[C@H]1CSSC[C@@H](C(=O)O)NC(=O)[C@@H]2CCCN2C(=O)[C@H](CCC(N)=O)NC1=O (H-YRCQPC-OH; disulfide 3-6)	9000 nM		50 nM
O=C(N[C@H]1CSSC[C@@H](C(=O)O)NC(=O)[C@@H]2CCCN2C(=O)[C@H](CO)NC1=O)C1CCNCC1 (H-[Inp]CSPC-OH; disulfide 2-5)	50000 nM		4600 nM
N[C@@H](Cc1ccc(O)c(Cl)c1)C(=O)N[C@H]1CSSC[C@@H](C(=O)O)NC(=O)[C@@H]2CCCN2C(=O)[C@H](CO)NC1=O (H-[Tyr(3-Cl)]CSPC-OH; disulfide 2-5)	600 nM		7 nM
N[C@@H](Cc1ccc(O)c(F)c1)C(=O)N[C@H]1CSSC[C@@H](C(=O)O)NC(=O)[C@@H]2CCCN2C(=O)[C@H](CO)NC1=O (H-[Tyr(3-F)]CSPC-OH; disulfide 2-5)	500 nM		8 nM
N[C@@H](Cc1ccc(O)c(I)c1)C(=O)N[C@H]1CSSC[C@@H](C(=O)O)NC(=O)[C@@H]2CCCN2C(=O)[C@H](CO)NC1=O (H-[Tyr(3-I)]CSPC-OH; disulfide 2-5)	200 nM		4 nM
N[C@@H](Cc1c(F)c(F)c(O)c(F)c1F)C(=O)N[C@H]1CSSC[C@@H](C(=O)O)NC(=O)[C@@H]2CCCN2C(=O)[C@H](CO)NC1=O (H-[X5]CSPC-OH; disulfide 2-5)	60000 nM		530 nM
N[C@@H](Cc1cccc(O)c1)C(=O)N[C@H]1CSSC[C@@H](C(=O)O)NC(=O)[C@@H]2CCCN2C(=O)[C@H](CO)NC1=O (H-[mTyr]CSPC-OH; disulfide 2-5)	25000 nM		250 nM
O=C(N[C@H]1CSSC[C@@H](C(=O)O)NC(=O)[C@@H]2CCCN2C(=O)[C@H](CO)NC1=O)C(Cc1ccc(O)cc1)c1ccccc1 (stereo partly drawn) (X1-CSPC-OH; disulfide 1-4)	2000 nM		13 nM
O=C(N[C@H]1CSSC[C@@H](C(=O)O)NC(=O)[C@@H]2CCCN2C(=O)[C@H](CO)NC1=O)c1cccc2cc(O)ccc12 (X2-CSPC-OH; disulfide 1-4)	40000 nM		1100 nM
O=C(N[C@H]1CSSC[C@@H](C(=O)O)NC(=O)[C@@H]2CCCN2C(=O)[C@H](CO)NC1=O)c1ccc(-c2ccc(O)cc2)cc1 (X4-CSPC-OH; disulfide 1-4)	120000 nM		1650 nM
O=C(N[C@H]1CSSC[C@@H](C(=O)O)NC(=O)[C@@H]2CCCN2C(=O)[C@H](CO)NC1=O)c1cccc2c1Cc1ccccc1-2 ({Fluorene(1-CO)}-CSPC-OH; disulfide 1-4)	1500 nM		140 nM
COc1ccc(CC(=O)N[C@H]2CSSC[C@@H](C(=O)O)NC(=O)[C@@H]3CCCN3C(=O)[C@H](CO)NC2=O)cc1 ({Phenylacetyl(4-OMe)}-CSPC-OH; disulfide 1-4)	3000 nM		250 nM
